Patent EP4647433A1, “SHP2 INHIBITOR AND USES THEREOF” (Kanaph Therapeutics Inc., priority 2023, dated 2024)

How the values were obtained:
[1] = target: T1, SHP2 (Homo sapiens, UniProt Q06124); experiment: Phosphatase assay (PTPase assay, DiFMUP substrate); assay type: biochemical; conditions: full length SHP2 100 pM activated with SHP2 activating peptide, DiFMUP 80 µM, 2 hours; read-out: PTPase assay (IC50)
T1 construct: SHP2 (full length, diluted to 100 pM final concentration in reaction buffer, BPS bioscience, US); purchased BPS bioscience, US
T1 sequence (Q06124 1-593): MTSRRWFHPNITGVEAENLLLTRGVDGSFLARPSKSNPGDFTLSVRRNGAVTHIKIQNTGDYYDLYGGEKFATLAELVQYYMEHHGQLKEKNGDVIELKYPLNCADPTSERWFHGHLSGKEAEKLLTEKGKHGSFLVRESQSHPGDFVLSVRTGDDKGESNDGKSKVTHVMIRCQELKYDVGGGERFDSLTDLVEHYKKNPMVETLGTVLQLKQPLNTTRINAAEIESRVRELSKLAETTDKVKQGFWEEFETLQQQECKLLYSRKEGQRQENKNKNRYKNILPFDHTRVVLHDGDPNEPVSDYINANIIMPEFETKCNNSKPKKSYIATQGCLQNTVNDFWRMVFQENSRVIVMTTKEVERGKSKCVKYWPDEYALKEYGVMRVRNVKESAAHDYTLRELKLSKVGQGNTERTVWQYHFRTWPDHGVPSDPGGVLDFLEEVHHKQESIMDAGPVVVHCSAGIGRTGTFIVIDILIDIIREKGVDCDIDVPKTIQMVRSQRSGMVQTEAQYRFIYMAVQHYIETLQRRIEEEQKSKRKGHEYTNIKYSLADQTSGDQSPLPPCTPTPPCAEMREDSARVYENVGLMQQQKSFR
Summary of the method: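 Full-length SHP2 at 100 pM final was activated with SHP2 activating peptide for 30 min in HEPES buffer pH 7.2 with NaCl, KCl, EDTA, DTT and P-20, then compound (0.6 nM–10 µM) added. DiFMUP (80 µM) was reacted for 2 h in total; fluorescence read at 340/450 nm and IC50 fitted from concentration-response.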

[2] = test system: phospho-ERK; experiment: phospho-ERK assay (AlphaLisa) in H358 cells; assay type: cell-based; conditions: Homo sapiens, NCI-H358, 1.5 hours incubation, read-out: pERK assay (IC50)
Protocol: H358 [20,000 cell/well] was contained in 40 µL of the cell culture solution (RPMI, 10% FBS, penicillin, streptomycin) and placed on a 384-well plate. After 24 hours, the serially diluted compound according to the Examples (concentration of minimum 0.13 nM, maximum 10 µM) was contained in 10 µL of the cell culture solution, put into wells containing cells, and incubated in a cell incubator for 1.5 hours. As a positive control group, the selective SHP2 inhibitor, TNO155 (Chemietek, US; concentration ranging from 0.13 nM to 10 µM) was used.
Thereafter, phospho-ERK was labeled using an AlphaLisa system from PerkinElmer according to the manufacturer's instructions, and then fluorescence (680 nm excitation wavelength, 615 nm emission wavelength) values were measured using a Varioskan equipment from Thermo. IC50 values were obtained using Graphad's Prism from the measured values depending on the concentration.
Intracellular SHP2 activity can be confirmed by measuring the degree of phosphorylation of ERK (extracellular signal regulated kinase), which represents Ras/Raf/ERK, a downstream signal pathway of SHP2. Inhibition of ERK phosphorylation by SHP2 inhibitors was confirmed through phospho-ERK analysis, which confirmed that the SHP2 inhibitors of the present disclosure have excellent activity in inhibiting ERK phosphorylation mediated by SHP2.

[3] = test system: H358 cells; experiment: Cell viability (3D spheroid, 3D CellTiter-Glo); assay type: cell-based; conditions: Homo sapiens, NCI-H358, 120 h; H358 spheroids, 5 days treatment
Summary of the method: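 H358 human NSCLC cells (4 x 10^3/well) grown 72 h in RPMI-1640 with 10% FBS to form spheroids, then treated with serially diluted compounds (1.5 nM–10 µM) for 5 days. Viability read by 3D CellTiter-Glo luminescence after 25 min at room temperature; IC50 from concentration–response.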

[4] = Brain-plasma Pharmacokinetics; conditions: male, CD-1 (ICR), mouse, brain/plasma, 20 mg/kg
Protocol: (§1) Nine male CD-1 mice (ICR mouse) aged 6 to 9 weeks were treated with the compounds according to the Examples at a concentration of 20 mg/kg. 0.025 mL of blood and brain tissue were collected at 1 hour, 8 hours, and 24 hours post-treatment, respectively. The collected blood was placed in an EDTA-K2 tube, centrifuged at 4°C at 3,200 x g for 10 minutes, and the supernatant plasma was collected. The brain tissue samples were collected immediately after euthanizing the CD-1 mice after blood collection and performing cardiac perfusion with cold saline. After collection, the brain tissues were washed with cold saline, wiped and dried, weighed, and homogenized using a homogenization buffer (15 mM PBS (pH 7.4): MeOH = 2:1) at a ratio of 1:3 (1 g of tissue to 3 mL of buffer, dilution ratio 4). Plasma and homogenized brain tissue samples were each transferred to a polypropylene microcentrifuge tube and stored at -60°C or lower. The concentration of compounds distributed in plasma and brain tissue was analyzed using LC-MS/MS, and the distribution in brain tissue compared to plasma was calculated as follows. Brain-to-plasma ratio = AUC(0-t) brain tissue /AUC(0-t) plasma [formula]
(§2) In the Brain-plasma Pharmacokinetics assay, when a brain-to-plasma ratio value was 0.05 or more and less than 0.1, + was indicated, when a brain-to-plasma ratio value was 0.1 or more and less than 0.25, ++ was indicated, and when a brain-to-plasma ratio value was more than 0.25, +++ was indicated.

[5] = in vivo; conditions: mouse, 20 mg/kg
Protocol: as §1, §2

| IC50 [1] | IC50 [2] | IC50 [3] | Kp at 24 h [4] | Kp at 24 h [5] | Structure (SMILES) |
| --- | --- | --- | --- | --- | --- |
| < 3 nM | < 45 nM | < 10 nM | 0.1 to 0.25 |  | Cn1ccc2ccc(Sc3ncc(N4CCC5(CC4)Cc4ccccc4[C@H]5N)nc3N)c(Cl)c2c1=O [Example 47, (S)-7-((3-amino-5-(1-amino-1,3-dihydrospiro[indene-2,4'-piperidin]-1'-yl)pyrazin-2-yl)thio)-8-chloro-2-methylisoquinolin-1(2H)-one] |
| < 3 nM | 45 to 1500 nM | < 10 nM | 0.1 to 0.25 |  | CC(C)n1ccc2ccc(Sc3ncc(N4CCC5(CC4)Cc4ccccc4[C@H]5N)nc3N)c(Cl)c2c1=O [Example 48, (S)-7-((3-amino-5-(1-amino-1,3-dihydrospiro[indene-2,4'-piperidin]-1'-yl)pyrazin-2-yl)thio)-8-chloro-2-isopropylisoquinolin-1(2H)-one] |
| < 3 nM | < 45 nM | < 10 nM | 0.1 to 0.25 |  | COC(C)Cn1ccc2ccc(Sc3ncc(N4CCC5(CC4)Cc4ccccc4[C@H]5N)nc3N)c(Cl)c2c1=O (some centres unmarked) [Example 49] |
|  |  | < 10 nM |  | > 0.25 | COC(C)(C)Cn1cnc2ccc(Sc3cnc(N4CCC5(CC4)Oc4ccccc4[C@H]5N)cn3)c(Cl)c2c1=O [Example 50, (R)-6-((5-(3-amino-3H-spiro[benzofuran-2,4'-piperidin]-1'-yl)pyrazin-2-yl)thio)-5-chloro-3-(2-methoxy-2-methylpropyl)quinazolin-4(3H)-one] |
